Test results from US10316039B2, “P2X3 and/or P2X2/3 compounds and methods” (Asana Biosciences, LLC, priority 2013, dated 2019).

Columns and labels:
P2X3 = biological target: T1, P2X3 (UniProt P56373); assay: P2X3 FLIPR intracellular calcium assay; type: cell-based; conditions: agonist at EC75, species (human or rat) not given
T1 sequence (P56373 1-397): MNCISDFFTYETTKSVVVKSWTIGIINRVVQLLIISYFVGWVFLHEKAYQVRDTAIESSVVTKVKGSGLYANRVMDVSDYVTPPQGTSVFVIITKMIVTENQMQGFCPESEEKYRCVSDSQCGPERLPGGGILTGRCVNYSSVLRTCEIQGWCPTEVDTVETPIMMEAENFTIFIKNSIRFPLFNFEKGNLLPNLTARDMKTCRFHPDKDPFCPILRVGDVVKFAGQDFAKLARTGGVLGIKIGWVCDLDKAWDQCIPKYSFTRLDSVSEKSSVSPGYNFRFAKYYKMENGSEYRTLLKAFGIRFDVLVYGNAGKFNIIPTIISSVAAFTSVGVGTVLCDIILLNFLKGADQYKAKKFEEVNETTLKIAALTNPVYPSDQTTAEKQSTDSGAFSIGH
How it was run: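 Human P2X3-HEK, human P2X2/3-TRex293, rat P2X2/3-TRex293 or rat P2X3 TRex-CHO cells loaded with Calcium 4 dye (1.8 mM probenecid, pH 7.4).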

P2X2/3 = biological target: T2, P2X2/3 (Homo sapiens, UniProt P56373+Q9UBL9); assay: P2X2/3 FLIPR intracellular calcium assay; type: cell-based; conditions: agonist at EC75, species (human or rat) not given
T2 sequence (Q9UBL9 1-471): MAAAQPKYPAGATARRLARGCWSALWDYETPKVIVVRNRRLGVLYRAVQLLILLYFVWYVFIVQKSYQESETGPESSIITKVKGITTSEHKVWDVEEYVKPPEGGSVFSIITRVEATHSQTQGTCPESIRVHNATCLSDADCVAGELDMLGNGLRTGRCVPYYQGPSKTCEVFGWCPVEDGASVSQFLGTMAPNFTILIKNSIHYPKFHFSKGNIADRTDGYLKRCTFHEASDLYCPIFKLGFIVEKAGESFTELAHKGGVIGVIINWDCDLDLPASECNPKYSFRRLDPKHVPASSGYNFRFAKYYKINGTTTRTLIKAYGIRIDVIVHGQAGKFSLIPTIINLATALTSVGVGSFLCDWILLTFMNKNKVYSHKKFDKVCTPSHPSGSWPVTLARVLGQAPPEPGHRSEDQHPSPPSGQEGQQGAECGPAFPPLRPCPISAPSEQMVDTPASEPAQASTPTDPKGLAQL
T2 sequence (P56373 1-397): T1 sequence (P56373 1-397)
How it was run: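 Stable human P2X2/3 TRex293 cells (doxycycline-induced) loaded with Calcium 4 dye; compounds, 11-point half-log series from 2 mM top stock, preincubated 15 min at RT in HBSS/HEPES pH 7.4 with 1.8 mM CaCl2. Agonist added at EC75; fluorescence change versus no-compound wells gave IC50.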

IC50 (P2X3) [nM] | IC50 (P2X2/3) [nM] | Structure (SMILES)
1 to 100 | 100 to 1000 | Cc1ccc(-c2cnc3c(N4CCC(F)CC4)cc(C(=O)N[C@@H](C)c4nnc[nH]4)cn23)s1 [Example 137]
1 to 100 | 100 to 1000 | COC1(C)CCN(c2cc(C(=O)N[C@@H](C)c3nnc[nH]3)cn3c(-c4ccc(C)s4)cnc23)CC1 [Example 139]
1 to 100 | 100 to 1000 | COC1CCCN(c2cc(C(=O)N[C@@H](C)c3nnc[nH]3)cn3c(-c4ccc(C)s4)cnc23)C1 (stereo partly shown) [Example 141]
1 to 100 | 1 to 100 | Cc1ccc(CNC(=O)c2cc(N3CCC(C)(C(N)=O)CC3)c3ncc(-c4ccc(C)s4)n3c2)cn1 [Example 148]
> 10000 | 100 to 1000 | Cc1ccc(-c2cnc3c(-n4nnnc4C(C)C)cc(C(=O)NCc4ccc(C(F)(F)F)nc4)cn23)s1 [Example 152]
100 to 1000 | 100 to 1000 | CCc1nnnn1-c1cc(C(=O)NCc2ccc(C3CC3)nc2)cn2c(-c3ccc(C)s3)cnc12 [Example 154]
> 10000 | 1 to 100 | Cc1ccc(CNC(=O)c2cc(-n3nnnc3C3CCC3)c3ncc(-c4ccc(C)s4)n3c2)cn1 [Example 155]
1 to 100 | 100 to 1000 | Cc1ccc(CNC(=O)c2cc(-n3nnnc3C)c3ncc(-c4ccc(C)s4)n3c2)cn1 [Example 157]
> 10000 | 100 to 1000 | Cc1ccc(-c2cnc3c(-n4nnnc4C4CCC4)cc(C(=O)NC(C)c4cnccn4)cn23)s1 (stereo not shown) [Example 160]
> 10000 | 1 to 100 | Cc1ccc(-c2cnc3c(-n4nnnc4C4CCC4)cc(C(=O)NCc4ccn(C)c(=O)c4)cn23)s1 [Example 161]
1 to 100 | 1000 to 10000 | CCc1nnnn1-c1cc(C(=O)NC(C)c2cnccn2)cn2c(-c3ccc(C)s3)cnc12 (stereo not shown) [Example 162]
1 to 100 | 1 to 100 | Cc1ccc(-c2cnc3c(-n4nnnc4CC4CC4)cc(C(=O)N[C@@H](C)c4nnc[nH]4)cn23)s1 [Example 166]
1 to 100 | 1 to 100 | COc1ncc(CNC(=O)c2cc(-n3nnnc3C(F)F)c3ncc(-c4ccc(C)s4)n3c2)cn1 [Example 169]
1 to 100 | 1 to 100 | Cc1ncc(CNC(=O)c2cc(-n3nnnc3C(F)F)c3ncc(-c4ncc(C)s4)n3c2)cn1 [Example 172]
1 to 100 | 1 to 100 | Cc1ccc(-c2cnc3c(-n4nnnc4C(C)(F)F)cc(C(=O)N[C@@H](C)c4nnc[nH]4)cn23)s1 [Example 182]

The next lines start with the molecule.

Structure (SMILES) | IC50 (P2X3) [nM] | IC50 (P2X2/3) [nM]
COC1CCN(c2cc(C(=O)N[C@@H](C)c3nnc[nH]3)cn3c(-c4ccc(C)s4)cnc23)C1 (stereo partly shown) [Example 138] | 1 to 100 | 100 to 1000
COC1CCN(c2cc(C(=O)N[C@@H](C)c3nnc[nH]3)cn3c(-c4ccc(C)s4)cnc23)CC1 [Example 140] | 1 to 100 | 100 to 1000
COC1(C)CCN(c2cc(C(=O)N[C@@H](C)c3nnc[nH]3)cn3c(-c4ccc(C)s4)cnc23)C1 (stereo partly shown) [Example 142] | 1 to 100 | 100 to 1000
CC[C@H](NC(=O)c1cc(N2CCC(F)(F)CC2)c2ncc(-c3ccc(C)s3)n2c1)c1nnc[nH]1 [Example 144] | 100 to 1000 | 1 to 100
Cc1ccc(-c2cnc3c(N4CCC(F)(F)CC4)cc(C(=O)N[C@H](c4nnc[nH]4)C(C)C)cn23)s1 [Example 145] | 1000 to 10000 | 100 to 1000
CC[C@H](NC(=O)c1cc(N2CCC(OC)CC2)c2ncc(-c3ccc(C)s3)n2c1)c1nnc[nH]1 [Example 146] | 1 to 100 | 100 to 1000
Cc1cccc(-c2cnc3c(N4CCC(C)CC4)cc(C(=O)N[C@@H](C)c4ncn[nH]4)cn23)c1 [Example 149] | 100 to 1000 | 1000 to 10000
Cc1ccccc1-c1cnc2c(N3CCC(C)CC3)cc(C(=O)NCc3ccc(C)[n+]([O-])c3)cn12 [Example 150] | 1 to 100 | 100 to 1000
Cc1ccc(CNC(=O)c2cc(-n3nnnc3C(C)C)c3ncc(-c4ccc(C)s4)n3c2)cn1 [Example 151] | 1 to 100 | 100 to 1000
CCc1nnnn1-c1cc(C(=O)NCc2ccc(C)nc2)cn2c(-c3ccc(C)s3)cnc12 [Example 153] | > 10000 | 1 to 100
Cc1ccc(CNC(=O)c2cc(-n3nnnc3CC3CC3)c3ncc(-c4ccc(C)s4)n3c2)cn1 [Example 156] | > 10000 | 1 to 100
CCCc1nnnn1-c1cc(C(=O)NCc2ccc(C)nc2)cn2c(-c3ccc(C)s3)cnc12 [Example 158] | > 10000 | 1 to 100
Cc1ccc(-c2cnc3c(-n4nnnc4C(C)C)cc(C(=O)NC(C)c4cnccn4)cn23)s1 (stereo not shown) [Example 159] | 100 to 1000 | 1000 to 10000
Cc1cnc(CNC(=O)c2cc(-n3nnnc3C3CCC3)c3ncc(-c4ccc(C)s4)n3c2)cn1 [Example 164] | > 10000 | 1 to 100
Cc1ccc(-c2cnc3c(-n4nnnc4C(F)F)cc(C(=O)N[C@@H](C)c4nnc[nH]4)cn23)s1 [Example 168] | 1 to 100 | 1 to 100
C[C@H](NC(=O)c1cc(-n2nnnc2C(F)F)c2ncc(-c3ccc(Cl)s3)n2c1)c1nnc[nH]1 [Example 170] | 1 to 100 | 1 to 100

Structure (SMILES) | IC50 (P2X3) [nM] | IC50 (P2X2/3) [nM]
CC[C@H](NC(=O)c1cc(-n2nnnc2C(F)F)c2ncc(-c3ccc(C)s3)n2c1)c1nnc[nH]1 [Example 171] | 1 to 100 | 1 to 100
Cc1ccc(CNC(=O)c2cc(-n3nnnc3C(F)F)c3ncc(-c4ncc(C)s4)n3c2)cn1 [Example 173] | 100 to 1000 | 100 to 1000
CC[C@H](NC(=O)c1cc(-n2nnnc2C(F)F)c2ncc(-c3ccc(Cl)s3)n2c1)c1nnc[nH]1 [Example 174] | 1 to 100 | 1 to 100
C[C@H](NC(=O)c1cc(-n2nnnc2C2CC2)c2ncc(-c3ccc(Cl)s3)n2c1)c1nnc[nH]1 [Example 175] | 100 to 1000 | 1000 to 10000
Cc1ncc(CNC(=O)c2cc(-n3nnnc3C(F)F)c3ncc(-c4ccc(Cl)s4)n3c2)cn1 [Example 176] | 100 to 1000 | 100 to 1000
Cc1ncc(CNC(=O)c2cc(-n3nnnc3C(F)F)c3ncc(-c4ccc(C)s4)n3c2)cn1 [Example 177] | 1 to 100 | 1 to 100
CCc1nnnn1-c1cc(C(=O)N[C@@H](C)c2nnc[nH]2)cn2c(-c3ccc(C)s3)cnc12 [Example 178] | 1 to 100 | 100 to 1000
CCCc1nnnn1-c1cc(C(=O)N[C@@H](C)c2nnc[nH]2)cn2c(-c3ccc(C)s3)cnc12 [Example 179] | 1 to 100 | 1 to 100
Cc1nnc([C@@H](C)NC(=O)c2cc(-n3nnnc3C(F)F)c3ncc(-c4ccc(C)s4)n3c2)o1 [Example 180] | 1 to 100 | 1 to 100
Cc1ccc(-c2cnc3c(-n4nnnc4CC(F)(F)F)cc(C(=O)N[C@@H](C)c4nnc[nH]4)cn23)s1 [Example 181] | 1 to 100 | 1 to 100
Cc1ncc(CNC(=O)c2cc(-n3nnnc3C(F)F)c3ncc(-c4ccc(C)o4)n3c2)cn1 [Example 183] | 100 to 1000 | 100 to 1000
C[C@H](NC(=O)c1cc(-n2nnnc2C(C)(F)F)c2ncc(-c3ccc(Cl)s3)n2c1)c1nnc[nH]1 [Example 184] | 1 to 100 | 1 to 100
Cc1cnc(CNC(=O)c2cc(-n3nnnc3C(F)F)c3ncc(-c4ncc(C)s4)n3c2)cn1 [Example 185] | 100 to 1000 | 1000 to 10000
Cc1noc([C@@H](C)NC(=O)c2cc(-n3nnnc3C(C)(F)F)c3ncc(-c4ccc(C)s4)n3c2)n1 [Example 186] | > 10000 | 1 to 100
CCC(=O)N(C)c1cc(C(=O)N[C@@H](C)c2nnc[nH]2)cn2c(-c3ccc(C)s3)cnc12 [Example 187] | 1 to 100 | 100 to 1000
CCC(=O)N(c1cc(C(=O)N[C@@H](C)c2nnc[nH]2)cn2c(-c3ccc(C)s3)cnc12)C1CC1 [Example 188] | 1 to 100 | 100 to 1000
